Tests used:
[1] = biological target: ABL2 (Homo sapiens, UniProt P42684); test: In vitro kinase assay (Kinase-Glo / ADP-Glo); format: biochemical; conditions: TGI1002 1 µM; means of two independent experiments; read-out: Inhibitory effect (%)
Procedure: (§1) All kinase reactions were carried out in 384-well plates. After addition of the compounds, kinase and ATP-substrate were added to the assay plates successively, the assay plates were centrifuged at 1,000 x g for 1 min and incubated for 1 h at 30 °C. Then, Kinase-Glo Plus or ADP-Glo reagent was added to each well. In Kinase-Glo assay, after addition of the reagent for 20 min, the luminescence was measured on an EnVision Multilabel Plate Reader (Perkin-Elmer). In ADP-Glo assay, after addition of the reagent for 40 min, Kinase Detection Reagent was added and incubated for another 30 min at 27 °C, and then the luminescence was measured. Kinase inhibition rates were calculated per manufacturer's instructions.

[2] = biological target: AKT1 (Homo sapiens, UniProt P31749); test: In vitro kinase assay (Kinase-Glo / ADP-Glo); format: biochemical; conditions: TGI1002 1 µM; means of two independent experiments; read-out: Inhibitory effect (%)
Procedure: as §1

[3] = biological target: AKT3 (Homo sapiens, UniProt Q9Y243); test: In vitro kinase assay (Kinase-Glo / ADP-Glo); format: biochemical; conditions: TGI1002 1 µM; means of two independent experiments; read-out: Inhibitory effect (%)
Procedure: as §1

[4] = biological target: AMPK (A1/B1/G1) (Homo sapiens, UniProt Q13131); test: In vitro kinase assay (Kinase-Glo / ADP-Glo); format: biochemical; conditions: TGI1002 1 µM; means of two independent experiments; read-out: Inhibitory effect (%)
Procedure: as §1

[5] = biological target: AXL (Homo sapiens, UniProt P30530); test: In vitro kinase assay (Kinase-Glo / ADP-Glo); format: biochemical; conditions: TGI1002 1 µM; means of two independent experiments; read-out: Inhibitory effect (%)
Procedure: as §1

[6] = biological target: Aurora A (Homo sapiens, UniProt O14965); test: In vitro kinase assay (Kinase-Glo / ADP-Glo); format: biochemical; conditions: TGI1002 1 µM; means of two independent experiments; read-out: Inhibitory effect (%)
Procedure: as §1

[7] = biological target: Aurora B (Homo sapiens, UniProt Q96GD4); test: In vitro kinase assay (Kinase-Glo / ADP-Glo); format: biochemical; conditions: TGI1002 1 µM; means of two independent experiments; read-out: Inhibitory effect (%)
Procedure: as §1

[8] = biological target: BRAF (Homo sapiens, UniProt P15056); test: In vitro kinase assay (Kinase-Glo / ADP-Glo); format: biochemical; conditions: TGI1002 1 µM; means of two independent experiments; read-out: Inhibitory effect (%)
Procedure: as §1

[9] = biological target: BRAF(v599E) (Homo sapiens, UniProt P15056, V600E); test: In vitro kinase assay (Kinase-Glo / ADP-Glo); format: biochemical; conditions: TGI1002 1 µM; means of two independent experiments; read-out: Inhibitory effect (%)
Procedure: as §1

[10] = biological target: CDK1/CyclinB (Homo sapiens, UniProt P06493); test: In vitro kinase assay (Kinase-Glo / ADP-Glo); format: biochemical; conditions: TGI1002 1 µM; means of two independent experiments; read-out: Inhibitory effect (%)
Procedure: as §1

[11] = biological target: CDK2/CyclinA2 (Homo sapiens, UniProt P24941); test: In vitro kinase assay (Kinase-Glo / ADP-Glo); format: biochemical; conditions: TGI1002 1 µM; means of two independent experiments; read-out: Inhibitory effect (%)
Procedure: as §1

[12] = biological target: CHK1 (Homo sapiens, UniProt O14757); test: In vitro kinase assay (Kinase-Glo / ADP-Glo); format: biochemical; conditions: TGI1002 1 µM; means of two independent experiments; read-out: Inhibitory effect (%)
Procedure: as §1

[13] = biological target: EGFR (Homo sapiens, UniProt P00533); test: In vitro kinase assay (Kinase-Glo / ADP-Glo); format: biochemical; conditions: TGI1002 1 µM; means of two independent experiments; read-out: Inhibitory effect (%)
Procedure: as §1

[14] = biological target: ERK2(MAPK1) (Homo sapiens, UniProt P28482); test: In vitro kinase assay (Kinase-Glo / ADP-Glo); format: biochemical; conditions: TGI1002 1 µM; means of two independent experiments; read-out: Inhibitory effect (%)
Procedure: as §1

[15] = biological target: FGR (Homo sapiens, UniProt P09769); test: In vitro kinase assay (Kinase-Glo / ADP-Glo); format: biochemical; conditions: TGI1002 1 µM; means of two independent experiments; read-out: Inhibitory effect (%)
Procedure: as §1

[16] = biological target: FLT1(VEGFR1) (Homo sapiens, UniProt P17948); test: In vitro kinase assay (Kinase-Glo / ADP-Glo); format: biochemical; conditions: TGI1002 1 µM; means of two independent experiments; read-out: Inhibitory effect (%)
Procedure: as §1

[17] = biological target: FLT3 (Homo sapiens, UniProt P36888); test: In vitro kinase assay (Kinase-Glo / ADP-Glo); format: biochemical; conditions: TGI1002 1 µM; means of two independent experiments; read-out: Inhibitory effect (%)
Procedure: as §1

[18] = biological target: GSK3α (Homo sapiens, UniProt P49840); test: In vitro kinase assay (Kinase-Glo / ADP-Glo); format: biochemical; conditions: TGI1002 1 µM; means of two independent experiments; read-out: Inhibitory effect (%)
Procedure: as §1

[19] = biological target: HER2 (Homo sapiens, UniProt P04626); test: In vitro kinase assay (Kinase-Glo / ADP-Glo); format: biochemical; conditions: TGI1002 1 µM; means of two independent experiments; read-out: Inhibitory effect (%)
Procedure: as §1

[20] = biological target: IGF1R (Homo sapiens, UniProt P08069); test: In vitro kinase assay (Kinase-Glo / ADP-Glo); format: biochemical; conditions: TGI1002 1 µM; means of two independent experiments; read-out: Inhibitory effect (%)
Procedure: as §1

[21] = biological target: InsR (Homo sapiens, UniProt P06213); test: In vitro kinase assay (Kinase-Glo / ADP-Glo); format: biochemical; conditions: TGI1002 1 µM; means of two independent experiments; read-out: Inhibitory effect (%)
Procedure: as §1

[22] = biological target: KDR (Homo sapiens, UniProt P35968); test: In vitro kinase assay (Kinase-Glo / ADP-Glo); format: biochemical; conditions: TGI1002 1 µM; means of two independent experiments; read-out: Inhibitory effect (%)
Procedure: as §1

[23] = biological target: LCK (Homo sapiens, UniProt P06239); test: In vitro kinase assay (Kinase-Glo / ADP-Glo); format: biochemical; conditions: TGI1002 1 µM; means of two independent experiments; read-out: Inhibitory effect (%)
Procedure: as §1

[24] = biological target: PI3Kβ (Homo sapiens, UniProt P42338); test: In vitro kinase assay (Kinase-Glo / ADP-Glo); format: biochemical; conditions: TGI1002 1 µM; means of two independent experiments; read-out: Inhibitory effect (%)
Procedure: as §1

[25] = biological target: PI3Kγ (Homo sapiens, UniProt P48736); test: In vitro kinase assay (Kinase-Glo / ADP-Glo); format: biochemical; conditions: TGI1002 1 µM; means of two independent experiments; read-out: Inhibitory effect (%)
Procedure: as §1

[26] = biological target: PI3Kδ (Homo sapiens, UniProt O00329); test: In vitro kinase assay (Kinase-Glo / ADP-Glo); format: biochemical; conditions: TGI1002 1 µM; means of two independent experiments; read-out: Inhibitory effect (%)
Procedure: as §1

[27] = biological target: PKAcr (Homo sapiens, UniProt P22612); test: In vitro kinase assay (Kinase-Glo / ADP-Glo); format: biochemical; conditions: TGI1002 1 µM; means of two independent experiments; read-out: Inhibitory effect (%)
Procedure: as §1

[28] = biological target: PKAcβ (Homo sapiens, UniProt P22694); test: In vitro kinase assay (Kinase-Glo / ADP-Glo); format: biochemical; conditions: TGI1002 1 µM; means of two independent experiments; read-out: Inhibitory effect (%)
Procedure: as §1

[29] = biological target: PKCξ (Homo sapiens, UniProt Q05513); test: In vitro kinase assay (Kinase-Glo / ADP-Glo); format: biochemical; conditions: TGI1002 1 µM; means of two independent experiments; read-out: Inhibitory effect (%)
Procedure: as §1

[30] = biological target: PLK1 (Homo sapiens, UniProt P53350); test: In vitro kinase assay (Kinase-Glo / ADP-Glo); format: biochemical; conditions: TGI1002 1 µM; means of two independent experiments; read-out: Inhibitory effect (%)
Procedure: as §1

[31] = biological target: PLK2 (Homo sapiens, UniProt Q9NYY3); test: In vitro kinase assay (Kinase-Glo / ADP-Glo); format: biochemical; conditions: TGI1002 1 µM; means of two independent experiments; read-out: Inhibitory effect (%)
Procedure: as §1

[32] = biological target: RAF1 (Homo sapiens, UniProt P04049); test: In vitro kinase assay (Kinase-Glo / ADP-Glo); format: biochemical; conditions: TGI1002 1 µM; means of two independent experiments; read-out: Inhibitory effect (%)
Procedure: as §1

[33] = biological target: RET (Homo sapiens, UniProt P07949); test: In vitro kinase assay (Kinase-Glo / ADP-Glo); format: biochemical; conditions: TGI1002 1 µM; means of two independent experiments; read-out: Inhibitory effect (%)
Procedure: as §1

[34] = biological target: SRC (Homo sapiens, UniProt P12931); test: In vitro kinase assay (Kinase-Glo / ADP-Glo); format: biochemical; conditions: TGI1002 1 µM; means of two independent experiments; read-out: Inhibitory effect (%)
Procedure: as §1

[35] = biological target: TrkA (Homo sapiens, UniProt P04629); test: In vitro kinase assay (Kinase-Glo / ADP-Glo); format: biochemical; conditions: TGI1002 1 µM; means of two independent experiments; read-out: Inhibitory effect (%)
Procedure: as §1

[36] = biological target: c-KIT(V654A) (Homo sapiens, UniProt P10721, V654A); test: In vitro kinase assay (Kinase-Glo / ADP-Glo); format: biochemical; conditions: TGI1002 1 µM; means of two independent experiments; read-out: Inhibitory effect (%)
Procedure: as §1

[37] = biological target: p38β (Homo sapiens, UniProt Q15759); test: In vitro kinase assay (Kinase-Glo / ADP-Glo); format: biochemical; conditions: TGI1002 1 µM; means of two independent experiments; read-out: Inhibitory effect (%)
Procedure: as §1

[38] = tested on: BaF3-p210^T315I cells; test: Survival study, intravenously injected tumor cells; format: in vivo, BALB/c mice; conditions: 30 mg/kg i.p. once daily from day 5; vehicle 25.5 days
Procedure: In survival study, BaF3-p210^T315I cells were injected into the tail vein of BALB/c mice (100 μL of a 1 × 10^7 cells suspension in serum free medium). […] Moribund animals were sacrificed as per institutional and national guidelines. Survival data were analyzed by the Kaplan Meier method and compared using the log-rank test.

Chain of ERK2(MAPK1) (P28482 whole entry): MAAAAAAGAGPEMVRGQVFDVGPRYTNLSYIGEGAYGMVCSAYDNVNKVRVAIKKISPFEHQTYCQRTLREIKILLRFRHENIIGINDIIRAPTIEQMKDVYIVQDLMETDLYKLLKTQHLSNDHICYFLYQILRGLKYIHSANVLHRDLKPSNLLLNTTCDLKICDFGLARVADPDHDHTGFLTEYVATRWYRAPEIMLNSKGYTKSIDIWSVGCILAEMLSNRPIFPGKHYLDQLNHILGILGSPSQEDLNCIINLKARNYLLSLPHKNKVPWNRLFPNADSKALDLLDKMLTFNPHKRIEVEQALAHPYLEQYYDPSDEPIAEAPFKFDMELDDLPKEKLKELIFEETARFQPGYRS
Chain of PI3Kβ (P42338 whole entry): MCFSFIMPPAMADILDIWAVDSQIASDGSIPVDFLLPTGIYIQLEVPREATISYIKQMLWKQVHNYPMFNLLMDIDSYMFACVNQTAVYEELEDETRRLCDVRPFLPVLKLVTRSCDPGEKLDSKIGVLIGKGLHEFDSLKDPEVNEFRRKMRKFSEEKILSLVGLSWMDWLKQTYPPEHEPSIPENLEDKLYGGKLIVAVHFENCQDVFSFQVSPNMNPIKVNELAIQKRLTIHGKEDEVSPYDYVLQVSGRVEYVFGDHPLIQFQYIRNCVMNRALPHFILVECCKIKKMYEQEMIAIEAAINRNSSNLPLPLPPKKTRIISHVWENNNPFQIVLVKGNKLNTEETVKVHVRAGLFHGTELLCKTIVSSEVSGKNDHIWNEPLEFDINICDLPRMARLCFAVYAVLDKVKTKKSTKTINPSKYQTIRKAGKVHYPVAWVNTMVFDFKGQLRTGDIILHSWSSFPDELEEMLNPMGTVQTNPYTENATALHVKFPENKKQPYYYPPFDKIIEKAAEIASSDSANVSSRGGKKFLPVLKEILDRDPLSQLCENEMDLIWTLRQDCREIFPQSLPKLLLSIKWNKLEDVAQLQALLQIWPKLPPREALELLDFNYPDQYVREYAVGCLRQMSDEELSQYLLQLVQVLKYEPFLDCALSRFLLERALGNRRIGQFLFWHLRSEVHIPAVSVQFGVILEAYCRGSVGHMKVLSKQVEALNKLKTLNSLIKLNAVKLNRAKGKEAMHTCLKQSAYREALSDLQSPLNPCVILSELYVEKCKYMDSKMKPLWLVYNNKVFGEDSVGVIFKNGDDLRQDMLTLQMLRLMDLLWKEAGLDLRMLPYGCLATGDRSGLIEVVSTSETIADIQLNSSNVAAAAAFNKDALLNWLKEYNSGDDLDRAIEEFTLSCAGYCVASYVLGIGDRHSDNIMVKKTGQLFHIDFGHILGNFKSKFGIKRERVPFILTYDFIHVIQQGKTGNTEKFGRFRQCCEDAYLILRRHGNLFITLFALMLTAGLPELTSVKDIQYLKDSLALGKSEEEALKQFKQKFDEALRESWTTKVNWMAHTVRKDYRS
Chain of PI3Kβ (P27986 whole entry partner): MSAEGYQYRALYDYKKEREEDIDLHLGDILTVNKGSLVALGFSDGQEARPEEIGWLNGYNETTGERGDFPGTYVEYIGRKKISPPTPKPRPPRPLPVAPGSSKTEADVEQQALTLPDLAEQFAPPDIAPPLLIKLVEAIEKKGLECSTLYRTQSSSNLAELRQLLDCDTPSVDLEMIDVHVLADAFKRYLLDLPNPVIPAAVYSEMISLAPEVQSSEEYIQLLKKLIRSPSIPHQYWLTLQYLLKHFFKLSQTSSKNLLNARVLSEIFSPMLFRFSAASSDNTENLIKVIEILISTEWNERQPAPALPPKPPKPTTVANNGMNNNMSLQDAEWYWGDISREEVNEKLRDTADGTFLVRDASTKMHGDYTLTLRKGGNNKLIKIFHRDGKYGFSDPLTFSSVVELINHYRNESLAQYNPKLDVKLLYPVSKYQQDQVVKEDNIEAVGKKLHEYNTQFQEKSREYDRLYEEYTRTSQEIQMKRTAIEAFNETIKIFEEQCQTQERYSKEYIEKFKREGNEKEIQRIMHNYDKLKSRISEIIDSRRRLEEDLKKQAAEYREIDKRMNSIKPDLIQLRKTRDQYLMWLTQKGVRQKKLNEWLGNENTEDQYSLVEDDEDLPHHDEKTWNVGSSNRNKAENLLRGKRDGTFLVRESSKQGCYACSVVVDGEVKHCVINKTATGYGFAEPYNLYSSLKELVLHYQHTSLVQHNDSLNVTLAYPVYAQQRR
Chain of ABL2 (P42684 whole entry): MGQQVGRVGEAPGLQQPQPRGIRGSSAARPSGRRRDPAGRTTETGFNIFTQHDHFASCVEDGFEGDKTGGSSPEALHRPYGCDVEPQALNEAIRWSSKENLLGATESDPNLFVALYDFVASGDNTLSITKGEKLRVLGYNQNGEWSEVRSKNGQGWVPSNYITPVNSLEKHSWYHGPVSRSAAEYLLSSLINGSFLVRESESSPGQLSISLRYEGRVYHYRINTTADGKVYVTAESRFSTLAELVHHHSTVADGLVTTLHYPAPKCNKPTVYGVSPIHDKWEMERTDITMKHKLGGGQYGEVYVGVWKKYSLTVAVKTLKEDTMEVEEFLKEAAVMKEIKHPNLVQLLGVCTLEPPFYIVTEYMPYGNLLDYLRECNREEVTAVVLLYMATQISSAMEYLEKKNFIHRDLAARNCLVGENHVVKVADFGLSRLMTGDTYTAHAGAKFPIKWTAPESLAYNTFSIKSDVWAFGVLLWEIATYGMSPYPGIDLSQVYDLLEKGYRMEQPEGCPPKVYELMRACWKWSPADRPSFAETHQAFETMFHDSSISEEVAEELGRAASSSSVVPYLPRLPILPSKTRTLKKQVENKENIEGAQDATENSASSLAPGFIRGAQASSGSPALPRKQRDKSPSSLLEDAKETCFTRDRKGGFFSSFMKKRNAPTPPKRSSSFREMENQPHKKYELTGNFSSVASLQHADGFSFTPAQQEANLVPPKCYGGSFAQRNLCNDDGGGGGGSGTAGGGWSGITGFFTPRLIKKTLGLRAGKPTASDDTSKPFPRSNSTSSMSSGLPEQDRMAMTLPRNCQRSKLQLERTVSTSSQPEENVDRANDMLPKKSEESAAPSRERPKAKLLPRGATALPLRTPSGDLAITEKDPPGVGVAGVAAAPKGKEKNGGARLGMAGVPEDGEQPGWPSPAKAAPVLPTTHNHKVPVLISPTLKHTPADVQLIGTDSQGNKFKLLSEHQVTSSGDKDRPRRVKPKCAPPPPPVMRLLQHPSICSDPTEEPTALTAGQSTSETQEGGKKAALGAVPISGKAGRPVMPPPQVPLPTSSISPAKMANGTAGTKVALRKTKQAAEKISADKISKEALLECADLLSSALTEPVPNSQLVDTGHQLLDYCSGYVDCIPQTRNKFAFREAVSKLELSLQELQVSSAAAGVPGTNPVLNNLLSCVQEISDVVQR
Chain of FGR (P09769 whole entry): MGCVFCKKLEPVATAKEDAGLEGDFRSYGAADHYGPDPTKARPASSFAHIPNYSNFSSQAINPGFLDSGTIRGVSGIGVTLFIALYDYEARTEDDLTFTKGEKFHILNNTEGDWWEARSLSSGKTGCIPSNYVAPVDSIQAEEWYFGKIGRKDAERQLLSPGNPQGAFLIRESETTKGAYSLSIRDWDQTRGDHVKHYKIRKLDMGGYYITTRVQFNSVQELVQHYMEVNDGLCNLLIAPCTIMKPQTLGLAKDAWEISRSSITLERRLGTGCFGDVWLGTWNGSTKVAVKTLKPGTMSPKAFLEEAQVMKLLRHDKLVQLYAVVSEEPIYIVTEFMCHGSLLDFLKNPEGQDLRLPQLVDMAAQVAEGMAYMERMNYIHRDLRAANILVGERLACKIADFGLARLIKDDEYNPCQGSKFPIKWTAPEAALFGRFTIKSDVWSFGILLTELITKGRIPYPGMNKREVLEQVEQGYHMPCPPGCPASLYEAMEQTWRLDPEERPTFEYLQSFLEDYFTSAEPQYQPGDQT
Chain of PI3Kδ (O00329 whole entry): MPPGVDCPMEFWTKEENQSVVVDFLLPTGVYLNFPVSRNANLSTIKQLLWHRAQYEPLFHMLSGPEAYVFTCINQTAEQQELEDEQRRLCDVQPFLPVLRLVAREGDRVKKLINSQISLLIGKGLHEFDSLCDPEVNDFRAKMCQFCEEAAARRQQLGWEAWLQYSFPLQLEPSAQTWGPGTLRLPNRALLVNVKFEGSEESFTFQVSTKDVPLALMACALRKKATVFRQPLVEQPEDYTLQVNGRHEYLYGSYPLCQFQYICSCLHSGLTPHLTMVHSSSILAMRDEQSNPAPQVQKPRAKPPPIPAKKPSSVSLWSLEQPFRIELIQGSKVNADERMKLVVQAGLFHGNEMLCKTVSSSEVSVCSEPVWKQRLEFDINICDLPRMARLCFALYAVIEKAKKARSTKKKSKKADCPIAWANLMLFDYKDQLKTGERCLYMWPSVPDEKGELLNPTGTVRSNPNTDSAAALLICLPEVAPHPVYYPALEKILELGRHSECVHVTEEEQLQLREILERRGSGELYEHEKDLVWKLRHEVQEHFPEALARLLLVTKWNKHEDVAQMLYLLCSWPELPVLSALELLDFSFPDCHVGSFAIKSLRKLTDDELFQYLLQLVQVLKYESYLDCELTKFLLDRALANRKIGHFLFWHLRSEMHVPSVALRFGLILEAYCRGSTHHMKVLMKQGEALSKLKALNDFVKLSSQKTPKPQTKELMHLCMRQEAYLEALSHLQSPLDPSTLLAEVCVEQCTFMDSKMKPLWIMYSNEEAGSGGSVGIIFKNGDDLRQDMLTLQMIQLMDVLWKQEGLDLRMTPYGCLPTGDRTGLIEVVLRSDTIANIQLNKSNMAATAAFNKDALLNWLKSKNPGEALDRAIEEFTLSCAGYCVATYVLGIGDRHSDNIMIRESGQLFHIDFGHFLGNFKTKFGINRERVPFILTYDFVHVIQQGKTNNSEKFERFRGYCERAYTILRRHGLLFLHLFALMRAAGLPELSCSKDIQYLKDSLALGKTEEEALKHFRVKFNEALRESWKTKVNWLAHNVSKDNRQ
Chain of PI3Kδ (P27986 whole entry partner): as the sequence (P27986 whole entry partner) above

Cc1ccc(NC(=O)c2cccc(CN3CCN(C)CC3)c2)cc1Oc1nccc(-c2cccnc2)n1.Cl [TGI1002, N-(4-methyl-3-((4-(pyridin-3-yl)-pyrimidin-2-yl)oxy)phenyl)-3-((4-methylpiperazin-1-yl)methyl)benzamide hydrochloride]
inhibition at 1 µM [1]: 19.2% | inhibition at 1 µM [2]: 5.07% | inhibition at 1 µM [3]: 3.62% | inhibition at 1 µM [4]: 0.19% | inhibition at 1 µM [5]: 3.03% | inhibition at 1 µM [6]: 24.6% | inhibition at 1 µM [7]: 0% | inhibition at 1 µM [8]: 2.3% | inhibition at 1 µM [9]: 3.61% | inhibition at 1 µM [10]: 3.24% | inhibition at 1 µM [11]: 1.54% | inhibition at 1 µM [12]: 3.61% | inhibition at 1 µM [13]: 0% | inhibition at 1 µM [14]: 0% | inhibition at 1 µM [15]: 7.53% | inhibition at 1 µM [16]: 1.97% | inhibition at 1 µM [17]: 2.97% | inhibition at 1 µM [18]: 2.6% | inhibition at 1 µM [19]: 7.88% | inhibition at 1 µM [20]: 8.65% | inhibition at 1 µM [21]: 3.7% | inhibition at 1 µM [22]: 0.64% | inhibition at 1 µM [23]: 5.82% | inhibition at 1 µM [24]: 0% | inhibition at 1 µM [25]: 2.65% | inhibition at 1 µM [26]: 0.71% | inhibition at 1 µM [27]: 1.45% | inhibition at 1 µM [28]: 6.5% | inhibition at 1 µM [29]: 13.3% | inhibition at 1 µM [30]: 1.63% | inhibition at 1 µM [31]: 3.52% | inhibition at 1 µM [32]: 5.37% | inhibition at 1 µM [33]: 12.2% | inhibition at 1 µM [34]: 1.09% | inhibition at 1 µM [35]: 3.11% | inhibition at 1 µM [36]: 11.7% | inhibition at 1 µM [37]: 0.2% | median survival [38]: 32.5 days

Reference: publication PMC4494927, “Discovery of a small molecule targeting SET-PP2A interaction to overcome BCR-ABLT315I mutation of chronic myeloid leukemia” (Oncotarget, 2015)
